In patent publication US20220324835A1 (Nurix Therapeutics, Inc., priority 2018, published 2022):

Columns and labels:
Cbl-b [1] = biological target: T1, Cbl-b (Homo sapiens, UniProt Q13191); assay: Cbl-b inhibition assay (Cbl-b activity assay, FRET, Biological Example 1; 100 mM NaCl, 60 nM Src kinase); format: biochemical; conditions: upper bound stated in text lists; read-out: IC50 values in the Cbl-b inhibition assay of Biological Example 1
Outline: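 Binding-based Cbl-b activity assay. Src-phosphorylated, N-terminally biotin-Avi-tagged Cbl-b recruits labelled UbcH5B-Ub, and proximity to streptavidin-terbium yields FRET.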

Cbl-b (residues 36-427) = Cbl-b (residues 36-427) (Homo sapiens, UniProt Q13191); assay: Cbl-b binding assay (SPR, Biacore T200); conditions: 20° C., 1:1 binding model
Outline: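 NeutrAvidin capture chip, 20° C; 50 s injections at 50 μl/min, 90-180 s dissociation; 0.3 M NaCl regeneration. Asterisked column: 50 mM NaCl buffer and 30 nM Src kinase in place of 100 mM NaCl and 60 nM Src kinase. 1:1 fit.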

Cbl-b [2] = biological target: T1, Cbl-b; assay: Cbl-b activity assay (Cbl-b inhibition assay), TR-FRET of Cbl-b interaction with UbcH5B-Ub; format: biochemical; conditions: assay buffer with 100 mM NaCl, 60 nM Src kinase; read-out: Cbl-b activity IC50
Outline: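 Compound-treated Cbl-b was incubated 1.5 h with Src kinase (60 nM final; 30 nM for asterisked values, which also used 50 mM instead of 100 mM NaCl), 1 mM ATP and 5 mM MgCl2. Binding to fluorescent Ub-loaded UbcH5B (C85K mutant) was then read by TR-FRET after 1 h more.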

T-cell = assay: IL-2 secretion from T-cells stimulated with anti-CD3 antibody alone (Biological Example 2); format: cell-based, human; conditions: T-cell, fold change over baseline, primary human total T-cells, read-out: IL-2 secretion Anti-CD3 stimulation; for fold induction at 1 µM: 1 μM Cbl-b inhibitor; for fold induction at 8 µM: 8 μM Cbl-b inhibitor

T1 sequence (Q13191 36-427): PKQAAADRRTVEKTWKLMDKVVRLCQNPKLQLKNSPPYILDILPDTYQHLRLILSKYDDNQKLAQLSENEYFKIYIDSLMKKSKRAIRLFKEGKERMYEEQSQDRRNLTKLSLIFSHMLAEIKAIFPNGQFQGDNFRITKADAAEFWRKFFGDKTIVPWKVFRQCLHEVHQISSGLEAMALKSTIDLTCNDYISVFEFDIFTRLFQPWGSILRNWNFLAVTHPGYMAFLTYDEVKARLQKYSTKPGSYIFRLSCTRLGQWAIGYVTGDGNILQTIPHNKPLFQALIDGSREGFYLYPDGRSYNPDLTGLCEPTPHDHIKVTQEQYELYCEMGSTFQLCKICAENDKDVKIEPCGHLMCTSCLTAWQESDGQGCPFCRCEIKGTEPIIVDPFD
Chain of Cbl-b (residues 36-427) (Q13191 36-427): as above

Structure (SMILES) | IC50 (Cbl-b [1]) [nM] | Kd (Cbl-b (residues 36-427)) [nM] | IC50 (Cbl-b [2]) [nM] | fold induction at 1 µM (T-cell) | fold induction at 8 µM (T-cell)
C[C@H](Sc1nncn1C)c1cc(F)cc(N2Cc3c(cccc3C(F)(F)F)C2=O)c1 [Compound 168a, 2-[3-fluoro-5-[(1S)-1-[(4-methyl-1,2,4-triazol-3-yl)sulfanyl]ethyl]phenyl]-4-(trifluoromethyl)isoindolin-1-one] | ≤ 500 | 301 to 1000 | 100 to 300 | < 0.05 | < 0.05
C[C@H](Sc1nncn1C)c1ccnc(N2Cc3c(cccc3C(F)(F)F)C2=O)c1 [Compound 172a, (S)-(4-(1-((4-methyl-4H-1,2,4-triazol-3-yl)thio)ethyl)pyridin-2-yl)-4-(trifluoromethyl)isoindolin-1-one] | ≤ 1000 | 1000 to 3000 | 301 to 1000 | < 0.05 | < 0.05
C[C@H](Cc1nncn1C)c1cccc(NC(=O)c2cccc(S(C)(=O)=O)n2)c1 [Compound 185, (R)-N-(3-(1-(4-methyl-4H-1,2,4-triazol-3-yl)propan-2-yl)phenyl)-6-(methylsulfonyl)picolinamide] | ≤ 1000 | 1000 to 3000 | 301 to 1000 | 0.051 to 0.1 | 0.051 to 0.1
C[C@H](Cc1nncn1C)c1cccc(NC(=O)c2cc(C(C)(C)O)c(Cl)cn2)c1 [Compound 186, (R)-5-chloro-4-(2-hydroxypropan-2-yl)-N-(3-(1-(4-methyl-4H-1,2,4-triazol-3-yl)propan-2-yl)phenyl)picolinamide] | ≤ 500 | 301 to 1000 | 301 to 1000 | 0.051 to 0.1 | 0.101 to 0.15
C[C@H](Cc1nncn1C)c1cccc(NC(=O)c2ccnc(C(F)(F)F)n2)c1 [Compound 187, (R)-N-(3-(1-(4-methyl-4H-1,2,4-triazol-3-yl)propan-2-yl)phenyl)-2-(trifluoromethyl)pyrimidine-4-carboxamide] | ≤ 500 | 100 to 300 | 100 to 300 | > 0.201 | > 0.201
C[C@H](Cc1nncn1C)c1cccc(NC(=O)c2cccc(C(F)(F)CO)n2)c1 [Compound 188, (R)-6-(1,1-difluoro-2-hydroxyethyl)-N-(3-(1-(4-methyl-4H-1,2,4-triazol-3-yl)propan-2-yl)phenyl)picolinamide] | ≤ 500 | 301 to 1000 | 100 to 300 | < 0.05 | 0.051 to 0.1
C[C@H](Cc1nncn1C)c1cccc(NC(=O)c2cncc(C(F)(F)F)n2)c1 [Compound 189, (R)-N-(3-(1-(4-methyl-4H-1,2,4-triazol-3-yl)propan-2-yl)phenyl)-6-(trifluoromethyl)pyrazine-2-carboxamide] | ≤ 500 | 301 to 1000 | 100 to 300 | 0.051 to 0.1 | 0.051 to 0.1
C[C@H](Cc1nncn1C)c1cccc(NC(=O)c2cc(C3(O)COC3)cc(C(F)(F)F)n2)c1 [Compound 190, (R)-4-(3-hydroxyoxetan-3-yl)-N-(3-(1-(4-methyl-4H-1,2,4-triazol-3-yl)propan-2-yl)phenyl)-6-(trifluoromethyl)picolinamide] | ≤ 500 | 100 to 300 | 100 to 300 | < 0.05 | 0.101 to 0.15
C[C@H](Cc1nncn1C)c1cccc(NC(=O)c2cc(S(C)(=O)=O)cc(C3CC3)n2)c1 [Compound 198, 6-cyclopropyl-N-[3-[(1R)-1-methyl-2-(4-methyl-1,2,4-triazol-3-yl)ethyl]phenyl]-4-methylsulfonyl-pyridine-2-carboxamide] | ≤ 500 | 100 to 300 | 100 to 300 | 0.101 to 0.15 | > 0.201
C[C@H](Cc1nncn1C)c1cccc(NC(=O)c2cc(S(N)(=O)=O)cc(C(F)(F)F)n2)c1 [Compound 200, (R)-N-(3-(1-(4-methyl-4H-1,2,4-triazol-3-yl)propan-2-yl)phenyl)-4-sulfamoyl-6-(trifluoromethyl)picolinamide] | ≤ 500 | 301 to 1000 | 100 to 300 | < 0.05 | 0.051 to 0.1
CNS(=O)(=O)c1cc(C(=O)Nc2cccc([C@H](C)Cc3nncn3C)c2)nc(C(F)(F)F)c1 [Compound 201, (R)-N-(3-(1-(4-methyl-4H-1,2,4-triazol-3-yl)propan-2-yl)phenyl)-4-(N-methylsulfamoyl)-6-(trifluoromethyl)picolinamide] | ≤ 500 | 301 to 1000 | 100 to 300 | 0.151 to 0.2 | > 0.201
C[C@H](Cc1nncn1C)c1cccc(NC(=O)c2cc(O[C@H]3CC[C@@H](O)C3)ccn2)c1 [Compound 206, 4-((1S,3R)-3-hydroxycyclopentyloxy)-N-(3-((R)-1-(4-methyl-4H-1,2,4-triazol-3-yl)propan-2-yl)phenyl)picolinamide] | ≤ 1000 | 301 to 1000 | 301 to 1000 | < 0.05 | 0.051 to 0.1
Cc1ccc(C(=O)Nc2cccc([C@H](C)Cc3nnc[nH]3)c2)nc1C1CC1 [Compound 212, (R)-N-(3-(1-(4H-1,2,4-triazol-3-yl)propan-2-yl)phenyl)-6-cyclopropyl-5-methylpicolinamide] | ≤ 500 | 1000 to 3000 | 301 to 1000 | < 0.05 | < 0.05
Cc1conc1C[C@@H](C)c1cccc(NC(=O)c2ccnc(C(F)(F)F)n2)c1 [Compound 213a, (R)-N-(3-(1-(4-methylisoxazol-3-yl)propan-2-yl)phenyl)-2-(trifluoromethyl)pyrimidine-4-carboxamide] | ≤ 500 | 100 to 300 | 100 to 300 | 0.051 to 0.1 | 0.101 to 0.15
C[C@H](Cc1nncn1C)c1cccc(NC(=O)c2cc(C(=O)N3CC[C@](C)(O)C3)ccn2)c1 [Compound 222, 4-((S)-3-hydroxy-3-methylpyrrolidine-1-carbonyl)-N-(3-((R)-1-(4-methyl-4H-1,2,4-triazol-3-yl)propan-2-yl)phenyl)picolinamide] | ≤ 1000 | 1000 to 3000 | 301 to 1000 | < 0.05 | < 0.05
C[C@H](Cc1nncn1C)c1cccc(NC(=O)c2cc(C(=O)N3C[C@@H](O)C[C@H]3C)ccn2)c1 [Compound 224, 4-((2R,4S)-4-hydroxy-2-methylpyrrolidine-1-carbonyl)-N-(3-((R)-1-(4-methyl-4H-1,2,4-triazol-3-yl)propan-2-yl)phenyl)picolinamide] | ≤ 500 | 301 to 1000 | 100 to 300 | 0.101 to 0.15 | 0.101 to 0.15
C[C@H](Cc1nncn1C)c1cccc(NC(=O)c2cc(C(=O)N3C[C@@H](O)[C@H](F)C3)ccn2)c1 [Compound 240, 4-((3R,4R)-3-fluoro-4-hydroxypyrrolidine-1-carbonyl)-N-(3-((K)-1-(4-methyl-4H-1,2,4-triazol-3-yl)propan-2-yl)phenyl)picolinamide] | ≤ 500 | 100 to 300 | 100 to 300 | 0.151 to 0.2 | > 0.201
C[C@H](Cc1nncn1C)c1cccc(NC(=O)c2cc(C(=O)N3CC(O)C(F)(F)C3)ccn2)c1 (stereo partly drawn) [Compound 243, 4-(3,3-difluoro-4-hydroxypyrrolidine-1-carbonyl)-N-[3-[(2R)-1-(4-methyl-4H-1,2,4-triazol-3-yl)propan-2-yl]phenyl]pyridine-2-carboxamide] | ≤ 500 | > 10000 | 301 to 1000 | > 0.201 | > 0.201
CCn1cnnc1C[C@@H](C)c1cccc(NC(=O)c2cc(C(=O)N3C[C@@H](O)C[C@H]3C)ccn2)c1 [Compound 251, N-(3-((R)-1-(4-ethyl-4H-1,2,4-triazol-3-yl)propan-2-yl)phenyl)-4-((2R,4S)-4-hydroxy-2-methylpyrrolidine-1-carbonyl)picolinamide] | ≤ 1000 | 1000 to 3000 | 301 to 1000 | 0.151 to 0.2 | 0.151 to 0.2
C[C@H](Cc1nncn1C)c1cccc(N2Cc3c(Br)cccc3C2=O)c1 [Compound 256, (R)-4-bromo-2-(3-(1-(4-methyl-4H-1,2,4-triazol-3-yl)propan-2-yl)phenyl)isoindolin-1-one] | ≤ 500 | 100 to 300 | 100 to 300 | > 0.201 | > 0.201
C[C@H](Cc1nncn1C)c1cccc(N2Cc3c(ccnc3C3CC3)C2=O)c1 [Compound 257, 4-cyclopropyl-2-[3-[(1R)-1-methyl-2-(4-methyl-1,2,4-triazol-3-yl)ethyl]phenyl]-3H-pyrrolo[3,4-c]pyridin-1-one] | ≤ 500 | 301 to 1000 | 100 to 300 | 0.151 to 0.2 | > 0.201
